From US9090593B2, “Bicyclic compounds as Pim inhibitors” (AMGEN INC., priority 2010, dated 2015)
Where two headings read alike, the source gives them in different places.

Tests used:
[1] = target: T1, full length recombinant Pim-2 protein (Homo sapiens, UniProt Q9P1W9); experiment: Pim-2 enzyme assay (HTRF, phosphorylation of biotinylated-BAD (S112) peptide); type: biochemical; conditions: read-out: Pim2_IC50
T1 construct: by full length recombinant Pim-1, Pim-2, or Pim-3 protein; hexahistidine tag followed by a thrombin cleavage site (N); made in house; host or cells: Sf9 (baculovirus) or E. coli (pET28)
How it was run: (§1)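 HTRF readout (europium anti-pBAD S112 antibody, streptavidin-APC) of biotin-BAD peptide phosphorylation by recombinant full-length Pim-1 or Pim-2, buffer 60 mM Hepes pH 7.0, 2 mM DTT, 0.05% BSA. Enzymes were His6-tagged, from baculovirus/Sf9 or E. coli.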

[2] = target: T2, Pim-1 stably transfected into the U2OS human osteogenic sarcoma line (Homo sapiens, UniProt P11309); experiment: Pim cell assay, phospho-BAD normalized against total BAD, U2OS stably transfected with Pim-1; type: cell-based
T2 construct: expressed in transfected cells; host or cells: U2OS human osteogenic sarcoma line
Description: (§2) The cell lines used in the assay were generated by the stable transfection of either Pim-1 or Pim-2 into the U2OS human osteogenic sarcoma line. The assay for determination of the Pim activity in the engineered U2OS cell lines measures levels of phospho-BAD normalized against total BAD protein levels. It was conducted as follows:
(§3) The adherent cells were dissociated from the flasks using non-enzymatic cell dissociation solution (Sigma # C5914). […] The cells were then incubated overnight at 37° C., 5% CO2.
(§4) In addition to the 10-point dosing curve of the test compound, DMSO alone was run as the high control.
(§5) This dilution in DMSO was then diluted again into cell growth medium. Aliquots (12 uL) of the compound diluted in growth medium were then transferred to the appropriate wells of the 96-well plates containing cells to yield a final DMSO concentration of 0.3%.
(§6) The cell plates containing lysis buffer were then immediately stored at −70° C.
(§7) These prepared lysates were then assayed for phospho and total BAD according to the manufacturer's protocols (Meso Scale Diagnostics, Cat# K15103C-3 & # K15103D-3). The plates were read on the MSD Sector Imager 6000, and results were calculated according to the assay protocols ((% Phosphoprotein=((2×Phospho signal)/(Phospho signal+Total signal))×100)).

[3] = target: T3, full length recombinant Pim-1 protein (Homo sapiens, UniProt P11309); experiment: Pim-1 enzyme assay (HTRF, phosphorylation of biotinylated-BAD (S112) peptide); type: biochemical; conditions: read-out: Pim_1_IC50
T3 construct: by full length recombinant Pim-1, Pim-2, or Pim-3 protein; hexahistidine tag followed by a thrombin cleavage site (N); made in house; host or cells: Sf9 (baculovirus) or E. coli (pET28)
How it was run: as §1

[4] = target: T4, Pim-2 stably transfected into the U2OS human osteogenic sarcoma line (Homo sapiens, UniProt Q9P1W9); experiment: Pim cell assay, phospho-BAD normalized against total BAD, U2OS stably transfected with Pim-2; type: cell-based
T4 construct: expressed in transfected cells; host or cells: U2OS human osteogenic sarcoma line
Description: as §2, §3, §4, §5, §6, §7

[5] = U2OS stably transfected with Pim-1, phospho-BAD normalized against total BAD, 29 min incubation, read-out: Pim1_Cell_IC50_
[6] = U2OS stably transfected with Pim-2, phospho-BAD normalized against total BAD, 29 min incubation, read-out: Pim2_Cell_IC50_
[7] = U2OS cells stably transfected with Pim-1, phospho-BAD, high dose […], read-out: Pim1_Cell_IC50
[8] = U2OS cells stably transfected with Pim-2, phospho-BAD, high dose […], read-out: Pim2_Cell_IC50

T3 sequence (P11309 whole entry): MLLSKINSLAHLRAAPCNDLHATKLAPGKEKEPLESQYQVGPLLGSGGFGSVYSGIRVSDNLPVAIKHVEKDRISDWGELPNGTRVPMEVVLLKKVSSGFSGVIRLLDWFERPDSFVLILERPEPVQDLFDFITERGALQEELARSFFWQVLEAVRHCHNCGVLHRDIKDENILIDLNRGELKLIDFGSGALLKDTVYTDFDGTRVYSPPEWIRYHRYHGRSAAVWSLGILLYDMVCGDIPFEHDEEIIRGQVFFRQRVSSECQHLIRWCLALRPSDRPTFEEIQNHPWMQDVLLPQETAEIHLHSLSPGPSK
T2 sequence (P11309 whole entry): as above
T4 sequence (Q9P1W9 whole entry): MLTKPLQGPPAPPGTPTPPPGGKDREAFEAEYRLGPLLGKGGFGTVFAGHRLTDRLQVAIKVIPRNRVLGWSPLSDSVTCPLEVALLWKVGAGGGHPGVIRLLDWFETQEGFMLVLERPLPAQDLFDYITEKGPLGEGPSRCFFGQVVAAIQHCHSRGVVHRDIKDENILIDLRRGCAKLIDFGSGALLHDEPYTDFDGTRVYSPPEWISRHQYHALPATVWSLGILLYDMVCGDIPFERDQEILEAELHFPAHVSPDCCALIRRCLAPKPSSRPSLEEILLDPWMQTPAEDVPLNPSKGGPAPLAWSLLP
T1 sequence (Q9P1W9 whole entry): as above

Row | Compound | IC50 [1] [nM] | IC50 [2, 5] [nM] | IC50 [3] [nM] | IC50 [4, 6] [nM] | further results
1 | CC(C)Oc1cncc(-c2ccc3[nH]nc(-c4cncc(N5CCC(N)CC5)n4)c3c2)n1 [Example 5, 1-(6-(5-(6-isopropoxypyrazin-2-yl)-1H-indazol-3-yl)pyrazin-2-yl)piperidin-4-amine] |  |  |  |  | IC50 ([1]; enzyme assay, Pim-2): 16 nM; IC50 [2, 7]: 45 nM; IC50 [4, 8]: 5440 nM
2 | NC1CCN(c2cncc(-c3n[nH]c4ccc(-c5cnc6[nH]nc(C(F)(F)F)c6c5)cc34)n2)CC1 [Example 6, 1-(6-(5-(3-(trifluoromethyl)-1H-pyrazolo[3,4-b]pyridin-5-yl)-1H-indazol-3-yl)pyrazin-2-yl)piperidin-4-amine] |  |  |  |  | IC50 ([1]; enzyme assay, Pim-2): 35 nM; IC50 [2, 7]: 1880 nM; IC50 ([3]; enzyme assay, Pim-1): 1 nM; IC50 [4, 8]: > 31600 nM
3 | COc1cncc(-c2ccc3[nH]nc(-c4ccnc(N5CCC(N)CC5)n4)c3c2)c1 [Example 30, 1-(4-(5-(5-Methoxypyridin-3-yl)-1H-indazol-3-yl)pyrimidin-2-yl)piperidin-4-amine] |  |  |  |  | IC50 ([1]; enzyme assay, Pim-2): 7 nM; IC50 ([2]; read-out: Pim1_Cell_IC50): 89 nM; IC50 ([3]; enzyme assay, Pim-1): 1 nM; IC50 ([4]; read-out: Pim2_Cell_IC50): 2240 nM
4 | NC1CCN(c2cncc(-c3n[nH]c4ccc(-c5cnc6[nH]ccc6c5)cc34)n2)CC1 [Example 57, 1-(6-(5-(1H-pyrrolo[2,3-b]pyridin-5-yl)-1H-indazol-3-yl)-2-pyrazinyl)-4-piperidinamine] |  |  |  |  | IC50 ([1]; enzyme assay, Pim-2): 10 nM; IC50 [2, 7]: 605 nM; IC50 ([3]; enzyme assay, Pim-1): 1 nM; IC50 [4, 8]: > 31600 nM
5 | Nc1cnnc(-c2ccc3[nH]nc(-c4cncc(N5CCC(N)CC5)n4)c3c2)c1 [Example 104, 6-(3-(6-(4-amino-1-piperidinyl)-2-pyrazinyl)-1H-indazol-5-yl)-4-pyridazinamine] |  |  |  |  | IC50 ([1]; enzyme assay, Pim-2): 1 nM; IC50 [2, 7]: 1920 nM; IC50 [4, 8]: > 31600 nM
6 | NC1CCN(c2cncc(-c3n[nH]c4ccc(-c5cncc(C6CC6)n5)cc34)n2)CC1 [Example 109, 1-(6-(5-(6-cyclopropyl-2-pyrazinyl)-1H-indazol-3-yl)-2-pyrazinyl)-4-piperidinamine] |  |  |  |  | IC50 ([1]; enzyme assay, Pim-2): 2 nM; IC50 [4, 8]: 1730 nM
7 | c1cc2[nH]nc(-c3cncc(N[C@@H]4CCCNC4)n3)c2cc1-c1cncc(C2CC2)n1 [Example 243, 6-(5-(6-cyclopropyl-2-pyrazinyl)-1H-indazol-3-yl)-N-((3R)-3-piperidinyl)-2-pyrazinamine] | 8 | 99 |  | 5590 | 
8 | O=c1cc(-c2c[nH]c3ccc(-c4c(F)cccc4F)cc23)nc(N[C@@H]2CCCNC2)[nH]1 [Example 279, (R)-6-(5-(2,6-difluorophenyl)-1H-indol-3-yl)-2-(piperidin-3-ylamino)pyrimidin-4(3H)-one] |  | 2400 | 1 | > 31600 | 
9 | c1cc(OC2CCC2)nc(-c2ccc3[nH]cc(-c4cncc(O[C@@H]5CCCNC5)n4)c3c2)c1 [Example 301] | 122 | 2540 | 13 |  | 
10 | c1cc2[nH]cc(-c3cncc(O[C@@H]4CCCNC4)n3)c2cc1-c1cncc(N2CCCC2)n1 [Example 302] | 189 | 995 | 9 |  | 
11 | Cc1nccn1-c1cccc(-c2ccc3[nH]cc(-c4cncc(O[C@@H]5CCCNC5)n4)c3c2)n1 [Example 305] | 127 | 754 | 7 |  | 
12 | Cc1ccn(-c2cccc(-c3ccc4[nH]cc(-c5cncc(O[C@@H]6CCCNC6)n5)c4c3)n2)n1 [Example 307] | 114 | 1600 | 6 |  | 
13 | CC(C)n1cc(-c2ccc3[nH]cc(-c4cncc(O[C@@H]5CCCNC5)n4)c3c2)cn1 [Example 308, 5-(1-(1-methylethyl)-1H-pyrazol-4-yl)-3-(6-((3R)-3-piperidinyloxy)-2-pyrazinyl)-1H-indole] | 76 | 160 | 8 |  | 
14 | COc1ccc(-c2ccc3[nH]cc(-c4cncc(O[C@@H]5CCCNC5)n4)c3c2)cn1 [Example 310] | 41 | 295 | 6 |  | 
15 | CC1(C)CC1c1ccc2[nH]cc(-c3cncc(O[C@@H]4CCCNC4)n3)c2c1 (some centres unmarked) [Example 312] | 31 | 1310 | 9 |  | 
16 | COc1cccc(-c2ccc3[nH]cc(-c4cncc(O[C@@H]5CCCNC5)n4)c3c2)c1 [Example 320] | 30 | 592 | 6 |  | 
17 | c1cc(OCC2CC2)ncc1-c1ccc2[nH]cc(-c3cncc(O[C@@H]4CCCNC4)n3)c2c1 [Example 323] | 67 | 1310 | 8 |  | 
18 | COc1c(C)cc(-c2ccc3[nH]cc(-c4cncc(O[C@@H]5CCCNC5)n4)c3c2)cc1C [Example 331] | 111 | 1280 | 8 |  | 

The next lines start with results.

Row | IC50 [1] [nM] | IC50 [2, 5] [nM] | IC50 [3] [nM] | IC50 [4, 6] [nM] | Compound | further results
19 | 60 | 1540 | 7 |  | Fc1cccc(F)c1-c1ccc2[nH]nc(-c3cncc(SC4CCCNC4)n3)c2c1 (single isomer, unassigned) [Example 414] | 
20 | 194 | 1660 | 17 | > 31600 | CC1CCNCC1Oc1cncc(-c2n[nH]c3ccc(-c4c(F)cccc4F)cc23)n1 (single isomer, unassigned) [Example 423] | 
21 | 114 | 2410 | 20 | > 31600 | CC1(C)CNCCC1Oc1cncc(-c2n[nH]c3ccc(-c4c(F)cccc4F)cc23)n1 (single isomer, unassigned) [Example 432] | 
22 | 22 | 801 | 2 | > 10000 | CC1(C)CNCCC1Oc1cncc(-c2n[nH]c3ccc(-c4c(F)cccc4F)cc23)n1 (single isomer, unassigned) [Example 433] | 
23 | 1 | 83 |  | 3700 | c1cc2[nH]nc(-c3cncc(NC4CCNCC4)n3)c2cc1-c1cncc(C2CC2)n1 [Example 369, 6-(5-(6-cyclopropyl-2-pyrazinyl)-1H-indazol-3-yl)-N-4-piperidinyl-2-pyrazinamine] | 
24 | 335 | 1480 | 15 |  | CC1(Oc2cncc(-c3n[nH]c4ccc(-c5c(F)cccc5F)cc34)n2)CCCNC1 (centres unmarked) [Example 417] | 
25 | 2 | 76 |  | 3680 | NC1CCN(c2cncc(-c3n[nH]c4ccc(-c5cncc(C6CC6)n5)cc34)n2)CC1 [Example 503, 1-(6-(5-(6-cyclopropyl-2-pyrazinyl)-1H-indazol-3-yl)-2-pyrazinyl)-4-piperidinamine] | 
26 | 127 | 7560 | 5 |  | NC1CCN(c2cncc(-c3n[nH]c4ccc(-c5cc6[nH]ccc6cn5)cc34)n2)CC1 [Example 504] | 
27 | 1 | 1370 |  | > 31600 | Nc1cncc(-c2ccc3[nH]nc(-c4cncc(N5CCC(N)CC5)n4)c3c2)n1 [Example 508] | 
28 | 6 | 51 |  | 4230 | NC1CCN(c2cncc(-c3n[nH]c4ccc(-c5cncc(NC6CC6)n5)cc34)n2)CC1 [Example 509] | 
29 | 520 |  | 77 |  | c1cc2[nH]cc(-c3cncc(O[C@@H]4CCCNC4)n3)c2cc1-c1csc(N2CCCC2)n1 [Example 553] | 
30 | > 1000 |  | > 1000 |  | CN(C)C(=O)c1ccc2[nH]nc(-c3cncc(O[C@@H]4CCCNC4)n3)c2c1 [Example 556] | 
31 | > 1000 |  | > 1000 |  | CN(C)C(=O)c1ccc2[nH]nc(-c3ccnc(O[C@@H]4CCCNC4)n3)c2c1 [Example 557] | 
32 | 1 | 202 |  | 8120 | COC(=O)c1ccc2[nH]nc(-c3cncc(NC4CCNCC4)n3)c2c1 [Example 559] | 
33 | 5 | 394 |  | 4780 | CC(C)OC(=O)c1ccc2[nH]nc(-c3cncc(NC4CCNCC4)n3)c2c1 [Example 560] | 
34 | > 1000 |  | > 1000 |  | CN(C)C(=O)c1ccc2[nH]nc(-c3ccnc(NC4CCNCC4)n3)c2c1 [Example 561] | 
35 | > 1000 |  | > 1000 |  | COc1cc(-c2c[nH]c3ccc(-c4c(F)cccc4F)cc23)nc(N2CCOCC2)n1 [Example 562] | 
36 | 143 |  | 87 |  | COc1cc(N2CCC(N)CC2)nc(-c2c[nH]c3ccc(-c4c(F)cccc4F)cc23)n1 [Example 563] | 
